Data as given in patent US20240189289A1, “INHIBITORS OF EPHB3 SIGNALING” (The Brigham and Women`s Hospital, Inc., priority 2021, published 2024).
Entries after “also recorded” stand apart in the source; their conditions may differ.

Tests used:
[1] = Preliminary in vivo pharmacokinetic evaluation, IP, plasma and brain concentrations; design: species or system Sprague-Dawley rats
microglia = test: Neonatal murine microglia stimulated with LPS: qPCR; format: cell-based, mouse; conditions: induced by LPS stimulation
Procedure: RNA isolation, cDNA synthesis and qPCR. RNA was extracted from in vitro generated samples with RNeasy Mini kit (#74106, QIAGEN) and cDNA was prepared by using the High-Capacity cDNA Reverse Transcription Kit (#4368813, Life Technologies), both according to the manufacturer's protocol. Gene expression was measured by qPCR with Taqman Fast Universal PCR Master Mix (#4367846, Life Technologies). Data were analyzed by the ddCt method by normalizing the expression of each gene to GAPDH and HPRT for mouse and GAPDH for human and then to the control group. All probes are listed below. • Mouse: EphB3 Mm00802553_m1, Ccl2 Mm00441242_m1, Csf2 Mm01290062_m1, Nos2 Mm00440502_m1, Tnf Mm00443258 m1, Il1b Mm00434228_m1, 116 Mm00446190_m1, GAPDH Mm99999915_g1. • Human: CCL2 Hs00234140_m1, CSF2 Hs00929873 ml, NOS2 Hs01075529_m1, TNF • Hs00174128_m1, IL6 Hs00985639_m1, IL1b Hs01555410_m1, GAPDH Hs02758991_g1.

astrocytes [2] = test: Mitochondrial ROS measurement (MitoSOX) in astrocytes; format: cell-based, mouse; conditions: induced by stimulation with TNFα and IL-1β
Procedure: Mitochondrial ROS measurement. 50,000 astrocytes were seeded per well in 96-well black plates and rested for 2 days in complete medium, followed by activation or inhibitor pretreatment for 24 h. MitoSOX red (Thermo Fisher Scientific, #M36008) was used to stain for mitochondrial ROS for 10 min following the manual and the signal was detected on Infinite M1000 PRO Microplate Reader (Tecan). The fluorescent signal was normalized to cell number estimated using CyQUANT cell proliferation assay kit (Invitrogen, #C7026) first and then compared to control group for data analysis.

[3] = system: neonatal murine astrocytes; test: Neonatal murine astrocytes activated with TNFα and IL-1β: qPCR and ELISA; format: cell-based, mouse
Procedure: Mouse primary astrocyte cultures. […] The cell suspension was then cultured at 37° C. in humidified 5% CO2 on poly-L-Lysine (#P4707, Sigma-Aldrich) pre-coated cell culture flasks. Medium was replaced every 3-5 days. The cells reached confluence after 7-10 days. Microglia were separated by shaking the glia culture at 225 rpm at 37° C. for at least 3 h and washing extensively with 1×PBS. Astrocytes were detached by mild trypsinization with Trypsin-EDTA (0.05%) at 37° C. and plated. […] Both cell types were then cultured separately for downstream procedures. […] Finally, microglia and astrocytes of each condition where magnetically separated as before and lysed for downstream gene expression analysis.
RNA isolation, cDNA synthesis and qPCR. […] Data were analyzed by the ddCt method by normalizing the expression of each gene to GAPDH and HPRT for mouse and GAPDH for human and then to the control group. All probes are listed below. • Mouse: EphB3 Mm00802553_m1, Ccl2 Mm00441242_m1, Csf2 Mm01290062_m1, Nos2 Mm00440502_m1, Tnf Mm00443258 m1, Il1b Mm00434228_m1, 116 Mm00446190_m1, GAPDH Mm99999915_g1. • Human: CCL2 Hs00234140_m1, CSF2 Hs00929873 ml, NOS2 Hs01075529_m1, TNF • Hs00174128_m1, IL6 Hs00985639_m1, IL1b Hs01555410_m1, GAPDH Hs02758991_g1.

primary astrocytes = test: Seahorse Mito Stress test (oxygen consumption) in primary astrocytes; format: cell-based, mouse
Procedure: Oxygen consumption. […] Mito Stress assay was then performed with Seahorse XF Cell Mito Stress Test Kit (Agilent Technologies, #103015-100) following the manufacturer's manual. […] The assay medium (DEMEM with 10 mM Glucose, 1 mM pyruvate and 2 mM glutamine) was used during the assay. The OCR rate was normalized to cell number estimated using CyQUANT cell proliferation assay kit (Invitrogen, #C7026).

Aqueous solubility = format: physicochemical; conditions: aqueous solution, aqueous buffer; oxalate salt, pH 7.4; read-out: aqueous solubility of the oxalate salt
N2A neuronal cells = test: Neurotoxicity assay of astrocyte-conditioned medium (LDH release); format: cell-based, mouse; conditions: ACM from astrocytes pre-treated with compound, LDH release after 24 h
Procedure: Generation of astrocyte-conditioned medium (ACM). […] After 24 h, cells were extensively washed with 1×PBS, and incubated with fresh astrocyte complete medium for 48 h. Supernatants were spun down and kept at −80° C. until tested in migration and neurotoxicity assays.
Neurotoxicity Assay. N2A neuronal cells (#CCL-131, ATCC) were plated and pre-activated with 100 ng/mL mouse IFNγ (#485-MI-100; R&D Systems) for 24 h.
Thereafter, after extensive washing with 1×PBS, medium was replaced with ACM and after 24 h the supernatant was harvested for cytotoxicity evaluation by measuring LDH release with CytoTox 96 nonradioactive cytotoxicity assay kit (#G1780, Promega) following the manufacturer's protocol.

astrocytes [4] = test: TNFα production in astrocytes (AlphaLISA, astrocyte-microglia co-cultures); format: cell-based, mouse; conditions: primary astrocytes
Procedure: AlphaLISA. Astrocyte-microglia co-cultures were seeded in 384 well plates pre coated with Poly-L-Lysine at a density of 10^4 cells/well. After 3 days, cells were preincubated with the corresponding compounds 30 minutes before LPS stimulation (0.5 ng/mL Invivogen #tlrl-3pelps) and supernatants were collected after 18 h of incubation. mTNFalpha kit (Perkin Elmer #AL505) was used to measure TNFα in the supernatants following the high sensitivity protocol according to manufacturer's instructions. Briefly, 2 μl of the supernatants or given standards were subsequently mixed with 5 μl of anti-TNFα acceptor beads, 30 minutes after biotinylated antibody anti-TNFα was added after 1 h SA-Donor beads were added and incubated 30 minutes. All incubations were performed at 23° C. in the dark. Fluorescence at 615 nm was then measured using an EnVision-Apha Reader (Perkin Elmer #2105-0010).

O=C(Nc1ccccc1Cl)c1cnc2ccc(C3CCNCC3)cn12 [A38]
brain Cmax ([1]; IP 3 mg/kg in 100% saline, male Sprague-Dawley rats, mono-oxalate salt): 331 ng/mL | Pgp substrate ([1]; inferred from the brain to plasma ratio): not a Pgp substrate | Kp ([1]; rat, brain/plasma, IP 3 mg/kg, male Sprague-Dawley rats, mono-oxalate salt, read-out: brain to plasma ratio): 1.5 | Cmax ([1]; rat, plasma, IP 3 mg/kg in 100% saline, male Sprague-Dawley rats, mono-oxalate salt): 221 ng/mL | half-life ([1]; rat, plasma, IP 3 mg/kg in 100% saline, male Sprague-Dawley rats, mono-oxalate salt, read-out: plasma half-life T1/2 (converted)): 2.25 h | microglial expression of Nos2 (microglia): no effect | microglial expression of Tnfa (microglia): no effect | mitochondrial production of ROS (astrocytes [2]): decreased | 116 expression in astrocytes (qPCR) [3]: reduced 116 expression in astrocytes in a dose-dependent manner | production of CCL2 (ELISA) [3]: decreased | production of IL-6 (ELISA) [3]: decreased | production of TNFα (ELISA) [3]: decreased | ATP-linked respiration (primary astrocytes): decreased | basal mitochondrial respiration (primary astrocytes): decreased | maximal mitochondrial respiration (primary astrocytes): decreased | solubility (Aqueous solubility): > 10000 µg/mL | ACM neurotoxic activity (N2A neuronal cells): decrease in neurotoxicity; also recorded: reduced ACM neurotoxic | TNFα production in astrocytes (astrocytes [4]): suppressed TNFα production; also recorded: highly efficient in down-modulating TNF-α production
